Test results as given in PubChem BioAssay AID1259407 (Chemical Carcinogenesis Research Information System (CCRIS), 2018).
The source made the active and inactive calls. No rule for the calls is given here.

System: CCRIS mutagenicity, Ames/micronucleus/aberration tests
Assay: CCRIS mutagenicity studies
[1] = Test System: AMES SALMONELLA TYPHIMURIUM, Strain/Indicator: TA100, Metabolic Activation: NONE, Method: PREINCUBATION
[2] = Test System: AMES SALMONELLA TYPHIMURIUM, Strain/Indicator: TA98, Metabolic Activation: NONE, Method: PREINCUBATION
[3] = Test System: AMES SALMONELLA TYPHIMURIUM, Strain/Indicator: TA1535, Metabolic Activation: NONE, Method: PREINCUBATION
[4] = Test System: AMES SALMONELLA TYPHIMURIUM, Strain/Indicator: TA1537, Metabolic Activation: NONE, Method: PREINCUBATION

Q: For `CC(=O)Nc1cccc2c1-c1ccccc1C2`, which mutagenic call (Test System: AMES SALMONELLA TYPHIMURIUM, Strain/Indicator: TA98, Metabolic Activation: HUMAN, RED BLOOD CELL, CYTOSOL, Method: PREINCUBATION) is on record?
A: inactive; negative

Q: What about the mutagenic call (Test System: AMES SALMONELLA TYPHIMURIUM, Strain/Indicator: TA1538, Metabolic Activation: RAT, LIVER, CYTOSOL, 4-ACETYLAMINOFLUORENE, Method: STANDARD PLATE) of the same compound?
A: inactive; negative

Q: And the mutagenic call (Test System: AMES SALMONELLA TYPHIMURIUM, Strain/Indicator: TA1538, Metabolic Activation: RAT, LIVER, CYTOSOL, AROCLOR 1254, Method: STANDARD PLATE)?
A: active; positive

Q: And the mutagenic call (Test System: AMES SALMONELLA TYPHIMURIUM, Strain/Indicator: TA1538, Metabolic Activation: RAT, LIVER, CYTOSOL, Method: STANDARD PLATE)?
A: inactive; negative

Q: What about the mutagenic call (Test System: AMES SALMONELLA TYPHIMURIUM, Strain/Indicator: TA1538, Metabolic Activation: RAT, LIVER, MICROSOMES, 4-ACETYLAMINOFLUORENE, Method: STANDARD PLATE) of the same compound?
A: active; positive

Q: What about the mutagenic call (Test System: AMES SALMONELLA TYPHIMURIUM, Strain/Indicator: TA1538, Metabolic Activation: RAT, LIVER, MICROSOMES, AROCLOR 1254, Method: STANDARD PLATE) of the same compound?
A: active; positive

Q: What about the mutagenic call (Test System: AMES SALMONELLA TYPHIMURIUM, Strain/Indicator: TA1538, Metabolic Activation: RAT, LIVER, MICROSOMES, Method: STANDARD PLATE) of the same compound?
A: inactive; negative

Q: What about the mutagenic call (Test System: AMES SALMONELLA TYPHIMURIUM, Strain/Indicator: TA1538, Metabolic Activation: RAT, LIVER, S-9, PHENOBARBITAL, Method: STANDARD PLATE) of the same compound?
A: active; positive

Q: And the mutagenic call (Test System: E. COLI, Strain/Indicator: WP2 UVRA, Metabolic Activation: HAMSTER, LIVER, S-9, AROCLOR 1254, Method: STANDARD PLATE)?
A: inactive; negative

Q: What about the mutagenic call (Test System: E. COLI, Strain/Indicator: WP2 UVRA, Metabolic Activation: HAMSTER, LIVER, S-9, Method: STANDARD PLATE) of the same compound?
A: inactive; negative

Q: What about the mutagenic call (Test System: E. COLI, Strain/Indicator: WP2 UVRA, Metabolic Activation: MOUSE, LIVER, S-9, AROCLOR 1254, Method: STANDARD PLATE) of the same compound?
A: inactive; negative

Q: And the mutagenic call (Test System: E. COLI, Strain/Indicator: WP2 UVRA, Metabolic Activation: MOUSE, LIVER, S-9, Method: STANDARD PLATE)?
A: inactive; negative

Q: And the mutagenic call (Test System: E. COLI, Strain/Indicator: WP2 UVRA, Metabolic Activation: NONE, Method: STANDARD PLATE)?
A: inactive; negative

Q: What about the mutagenic call (Test System: E. COLI, Strain/Indicator: WP2 UVRA, Metabolic Activation: RAT, LIVER, S-9, AROCLOR 1254, Method: STANDARD PLATE) of the same compound?
A: inactive; negative

Q: And the mutagenic call (Test System: E. COLI, Strain/Indicator: WP2 UVRA, Metabolic Activation: RAT, LIVER, S-9, Method: STANDARD PLATE)?
A: inactive; negative

Q: And the mutagenic call (Test System: MOUSE LYMPHOMA, Strain/Indicator: L5178Y (TK+/TK-), Metabolic Activation: NONE, Method: SUSPENSION/PLATE)?
A: inactive; negative

Q: What about the mutagenic call (Test System: UDS, Strain/Indicator: HEPG2/THYMIDINE INCORPORATION, Metabolic Activation: NONE, Method: AUTORADIOGRAPHY) of the same compound?
A: inactive; negative

Q: Which mutagenic call [1] does the source give for `Nc1nc2c([nH]c(=O)n2[C@H]2C[C@H](O)[C@@H](CO)O2)c(=O)[nH]1` here?
A: inactive; negative

Q: What does the source list for `CCCCCCCCCCCCCCCCCCCC`?
A: mutagenic call (Test System: AMES SALMONELLA TYPHIMURIUM, Strain/Indicator: TA97, Metabolic Activation: HAMSTER, LIVER, S-9, AROCLOR 1254 (10 OR 30%), Method: PREINCUBATION): inactive; negative; mutagenic call (Test System: AMES SALMONELLA TYPHIMURIUM, Strain/Indicator: TA97, Metabolic Activation: NONE, Method: PREINCUBATION): inactive; negative; mutagenic call (Test System: AMES SALMONELLA TYPHIMURIUM, Strain/Indicator: TA97, Metabolic Activation: RAT, LIVER, S-9, AROCLOR 1254 (10 OR 30%), Method: PREINCUBATION): inactive; negative; mutagenic call (Test System: AMES SALMONELLA TYPHIMURIUM, Strain/Indicator: TA98, Metabolic Activation: HAMSTER, LIVER, S-9, AROCLOR 1254 (10 OR 30%), Method: PREINCUBATION): inactive; negative; mutagenic call [2]: inactive; negative; mutagenic call (Test System: AMES SALMONELLA TYPHIMURIUM, Strain/Indicator: TA98, Metabolic Activation: RAT, LIVER, S-9, AROCLOR 1254 (10 OR 30%), Method: PREINCUBATION): inactive; negative; mutagenic call (Test System: AMES SALMONELLA TYPHIMURIUM, Strain/Indicator: TA100, Metabolic Activation: HAMSTER, LIVER, S-9, AROCLOR 1254 (10 OR 30%), Method: PREINCUBATION): inactive; negative; mutagenic call [1]: inactive; negative; mutagenic call (Test System: AMES SALMONELLA TYPHIMURIUM, Strain/Indicator: TA100, Metabolic Activation: RAT, LIVER, S-9, AROCLOR 1254 (10 OR 30%), Method: PREINCUBATION): inactive; negative; mutagenic call (Test System: AMES SALMONELLA TYPHIMURIUM, Strain/Indicator: TA1535, Metabolic Activation: HAMSTER, LIVER, S-9, AROCLOR 1254 (10 OR 30%), Method: PREINCUBATION): inactive; negative; mutagenic call [3]: inactive; negative; mutagenic call (Test System: AMES SALMONELLA TYPHIMURIUM, Strain/Indicator: TA1535, Metabolic Activation: RAT, LIVER, S-9, AROCLOR 1254 (10 OR 30%), Method: PREINCUBATION): inactive; negative; mutagenic call (Test System: AMES SALMONELLA TYPHIMURIUM, Strain/Indicator: TA1537, Metabolic Activation: HAMSTER, LIVER, S-9, AROCLOR 1254 (30%), Method: PREINCUBATION): inactive; negative; mutagenic call [4]: inactive; negative; mutagenic call (Test System: AMES SALMONELLA TYPHIMURIUM, Strain/Indicator: TA1537, Metabolic Activation: RAT, LIVER, S-9, AROCLOR 1254 (30%), Method: PREINCUBATION): inactive; negative

Q: Which mutagenic call (Test System: AMES SALMONELLA TYPHIMURIUM, Strain/Indicator: TA98, Metabolic Activation: HAMSTER, LIVER, S-9, AROCLOR 1254 (10%), Method: PREINCUBATION) does the source give for `CC(O)CNCC(C)O` (centres undefined) here?
A: inactive; negative

Q: And the mutagenic call [2]?
A: inactive; negative

Q: And the mutagenic call (Test System: AMES SALMONELLA TYPHIMURIUM, Strain/Indicator: TA98, Metabolic Activation: RAT, LIVER, S-9, AROCLOR 1254 (10%), Method: PREINCUBATION)?
A: inactive; negative

Q: And the mutagenic call (Test System: AMES SALMONELLA TYPHIMURIUM, Strain/Indicator: TA100, Metabolic Activation: HAMSTER, LIVER, S-9, AROCLOR 1254 (10%), Method: PREINCUBATION)?
A: inactive; negative

Q: What about the mutagenic call [1] of the same compound?
A: inactive; negative

Q: And the mutagenic call (Test System: AMES SALMONELLA TYPHIMURIUM, Strain/Indicator: TA100, Metabolic Activation: RAT, LIVER, S-9, AROCLOR 1254 (10%), Method: PREINCUBATION)?
A: inactive; negative

Q: And the mutagenic call (Test System: AMES SALMONELLA TYPHIMURIUM, Strain/Indicator: TA1535, Metabolic Activation: HAMSTER, LIVER, S-9, AROCLOR 1254 (10%), Method: PREINCUBATION)?
A: inactive; negative

Q: And the mutagenic call [3]?
A: inactive; negative

Q: What about the mutagenic call (Test System: AMES SALMONELLA TYPHIMURIUM, Strain/Indicator: TA1535, Metabolic Activation: RAT, LIVER, S-9, AROCLOR 1254 (10%), Method: PREINCUBATION) of the same compound?
A: inactive; negative

Q: What about the mutagenic call (Test System: AMES SALMONELLA TYPHIMURIUM, Strain/Indicator: TA1537, Metabolic Activation: HAMSTER, LIVER, S-9, AROCLOR 1254 (10%), Method: PREINCUBATION) of the same compound?
A: inactive; negative

Q: And the mutagenic call [4]?
A: inactive; negative

Q: And the mutagenic call (Test System: AMES SALMONELLA TYPHIMURIUM, Strain/Indicator: TA1537, Metabolic Activation: RAT, LIVER, S-9, AROCLOR 1254 (10%), Method: PREINCUBATION)?
A: inactive; negative

Q: With `O/N=C/c1ccccn1` as the compound, how does the mutagenic call (Test System: AMES SALMONELLA TYPHIMURIUM, Strain/Indicator: TA102, Metabolic Activation: RAT, LIVER, S-9, PHENOBARBITAL AND 5,6-BENZOFLAVONE, Method: STANDARD PLATE) read?
A: inactive; negative

Q: What about the mutagenic call (Test System: AMES SALMONELLA TYPHIMURIUM, Strain/Indicator: TA2638, Metabolic Activation: RAT, LIVER, S-9, PHENOBARBITAL AND 5,6-BENZOFLAVONE, Method: STANDARD PLATE) of the same compound?
A: inactive; negative

Q: And the mutagenic call (Test System: E. COLI, Strain/Indicator: WP2 (PKM101), Metabolic Activation: RAT, LIVER, S-9, PHENOBARBITAL AND 5,6-BENZOFLAVONE, Method: STANDARD PLATE)?
A: inactive; negative

Q: And the mutagenic call (Test System: E. COLI, Strain/Indicator: WP2 UVRA (PKM101), Metabolic Activation: RAT, LIVER, S-9, PHENOBARBITAL AND 5,6-BENZOFLAVONE, Method: STANDARD PLATE)?
A: active; positive
